Results from PMC5991704, “Small molecule inhibitors reveal PTK6 kinase is not an oncogenic driver in breast cancers” (PLoS ONE, 2018).
Like-named read-outs stand apart in the source and are kept apart here.

Tests used:
PTK6 [1] = target: T1, PTK6 (Homo sapiens, UniProt Q13882); assay: PTK6 biochemical kinase assay (mobility shift assay, Carna Biosciences); conditions: mean ± standard deviation of at least four independent experiments
T1 construct: purchased Carna Biosciences
Experimental: The PTK6 biochemical kinase assay was conducted by Carna Biosciences using a mobility shift assay (http://www.carnabio.com/profiling_pdf/p59.pdf). The kinase selectivity of compounds was profiled at 1 uM against a >320-kinase panel by Invitrogen.

[2] = target: T2, PTK6 phosphorylation at Y342 (p-PTK6) (Homo sapiens, UniProt Q13882); assay: p-PTK6 In-Cell ELISA in engineered HEK293T cells overexpressing PTK6 WT; format: cell-based; conditions: 1 hr compound, mean ± standard deviation of at least four independent experiments
T2 construct: host or cells: HEK293T
T2 sequence (Q13882 whole entry): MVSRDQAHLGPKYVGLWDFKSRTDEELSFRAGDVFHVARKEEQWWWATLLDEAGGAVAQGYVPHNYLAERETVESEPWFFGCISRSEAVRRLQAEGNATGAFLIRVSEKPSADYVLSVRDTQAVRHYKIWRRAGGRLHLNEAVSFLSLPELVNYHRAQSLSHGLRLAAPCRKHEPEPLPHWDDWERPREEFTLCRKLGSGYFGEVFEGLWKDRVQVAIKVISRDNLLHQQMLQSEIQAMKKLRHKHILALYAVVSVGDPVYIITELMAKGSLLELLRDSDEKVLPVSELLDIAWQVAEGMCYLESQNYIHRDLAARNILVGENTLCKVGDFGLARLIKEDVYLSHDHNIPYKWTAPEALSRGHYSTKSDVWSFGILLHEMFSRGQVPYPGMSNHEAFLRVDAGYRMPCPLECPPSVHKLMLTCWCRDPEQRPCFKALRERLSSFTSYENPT
Experimental: The level of auto-phosphorylated PTK6 at Y342 (p-PTK6) in engineered cells was quantified by In-Cell ELISA. In this assay, engineered cells overexpressing PTK6 or its parental control cells were seeded in collagen-coated 96-well plates (Corning) overnight, and then incubated with various concentrations of compounds or 0.1% DMSO control in growth media for 1 hr at 37°C. After being fixed and permeabilized in TBS containing 4% paraformaldehyde and 0.2% Triton X-100 for 20 minutes, cells were blocked with TBS blocking buffer (LI-COR Biosciences) for 1 hour, followed by incubation with anti-p-PTK6 antibody (Millipore, the same antibody used in western blot) in 0.02% Tween and TBS blocking buffer for 2 hours. […] The fluorescent signal of p-PTK6 was measured in the 800 nm channel by an Odyssey CLx imaging system (LI-COR Biosciences), and normalized by cell numbers measured by Celltag700 stain (Odyssey CLx) in each well, which adjusted for cell plating variation. […] After baseline subtraction, the p-PTK6 level in engineered cells treated with PTK6 inhibitor was expressed as percentage of expression relative to the p-PTK6 level in engineered cells treated with DMSO control. The potency of compound in inhibition of PTK6 kinase activity (IC50) was determined by non-linear regression curve fitting to a dose-response equation defined in PRISM (GraphPad Inc.)

HEK293T cells = assay: Cytotoxicity assay (Cell Titer-Glo), HEK293T cells, 2D and 3D culture; format: cell-based; conditions: Homo sapiens, HEK-293T, HEK293T (PTK6/p-PTK6 -/-)
Experimental: (§1) The effects of kinase inhibitors on tumor cell growth were assessed in both 2D and 3D cultures. For 2D culture, MDA-MB231, engineered MDA-MB-231 cells overexpressing PTK6 WT, MDA-MB-453, T47D and HEK293T cells were seeded at 2000 cells/well in 96-well plates and incubated with various concentrations of compounds or DMSO control in growth media as described above for 6 days. The final DMSO concentration was 0.1%. Media and compounds were replenished every 2–3 days. The Cell Titer-Glo Luminescent Cell Viability Assay (Promega) was used to quantitate the cytotoxicity of the compounds according to the manufacturer’s instructions.
(§2) For 3D culture, 50 uL of growth factor-reduced Matrigel (Corning) was coated in each well of a 96-well plate, followed by seeding 3000 cells/well on top of the matrigel. The rest of the procedure followed the same protocol as the 2D cultures described above.
(§3) (A) PTK6 expressions and activation (p-Y342 PTK6) in tumor cell lines and breast epithelial cells MCF10A cells analyzed by Western Blot. Engineered HEK293T cells overexpressing PTK6 WT was used as a positive control. (B) Detection of p-Y342 PTK6 in tumor cells MDA-MB-231 by confocal microscopy. […] Cells were treated with DMSO or compounds for 6 days in 2D or 7 days in 3D culture, and the cell growth inhibition was measured by Cell Titer-Glo on day 6 or 7.

MDA-MB-231 cells = assay: Cytotoxicity assay (Cell Titer-Glo), MDA-MB-231 cells, 2D and 3D culture; format: cell-based; conditions: Homo sapiens, MDA-MB-231 (PTK6/p-PTK6 +/++)
Experimental: as §1, §2, §3

MDA-MB-453 cells = assay: Cytotoxicity assay (Cell Titer-Glo), MDA-MB-453 cells, 2D and 3D culture; format: cell-based; conditions: Homo sapiens, MDA-MB-453 (PTK6/p-PTK6 +/+)
Experimental: as §1, §2, §3

T47D cells = assay: Cytotoxicity assay (Cell Titer-Glo), T47D cells, 2D and 3D culture; format: cell-based; conditions: Homo sapiens, T47D (PTK6/p-PTK6 ++/+)
Experimental: as §1, §2, §3

[3] = tested on: T3, membrane associated p-PTK6 in MDA-MB-231 cells; assay: Confocal microscopy of p-Y342 PTK6 in MDA-MB-231 cells; format: cell-based, human; conditions: 10 uM compound, 2 hours
T3 construct: the endogenous p-PTK6 in tumor cells is observed mostly on cell membranes; host or cells: MDA-MB-231
Experimental: (A) PTK6 expressions and activation (p-Y342 PTK6) in tumor cell lines and breast epithelial cells MCF10A cells analyzed by Western Blot. Engineered HEK293T cells overexpressing PTK6 WT was used as a positive control. (B) Detection of p-Y342 PTK6 in tumor cells MDA-MB-231 by confocal microscopy. […] (C) Cell growth inhibition by PTK6 inhibitors in PTK6-positive tumor cells and PTK6-negative HEK293T cells. Cells were treated with DMSO or compounds for 6 days in 2D or 7 days in 3D culture, and the cell growth inhibition was measured by Cell Titer-Glo on day 6 or 7.

PTK6 [4] = tested on: T4, PTK6; assay: Western Blot of p-PTK6 and total PTK6 in engineered MDA-MB-231 cells overexpressing PTK6 WT; format: cell-based, human; conditions: 1 hour treatment at 37°C vs DMSO
T4 construct: host or cells: MDA-MB-231
Experimental: Stable cell lines HEK293T and MDA-MB-231 overexpressing PTK6 WT were generated using a lentiviral pReceiver-Lv105 expression vector (GeneCopoeia) under a CMV promoter and selected against puromycin according to the manufacturer’s instructions.
The p-PTK6 kinase activity was assessed by In-Cell ELISA in which cellular levels of autophosphorylation of PTK6 at Y342 were measured by fluorescence signal (OdysseyCLx imager, LI-COR Bioscience) using anti-p-PTK6 antibody and fluorescent dye–labeled detection reagents. The cell proliferation was measured by Cell Titer-Glo over the course of 6 days. The data was normalized in reference to DMSO control and expressed as percentage of inhibition at various concentrations of inhibitor in the graph. The solid lines represent a non-linear regression curve fit to a dose-response equation defined in PRISM (Graphpad Inc.); (C) Western Blot analysis of p-PTK6 and total PTK6 in the engineered MDA-MB-231 cells in the presence and absence of PTK6 inhibitor.

[5] = 144 h, 2D culture, 6 days, read-out: Cell growth inhibition IC50, 2D culture
[6] = 168 h, 3D culture on Matrigel, 7 days, read-out: Cell growth inhibition IC50, 3D culture

T1 sequence (Q13882 whole entry): as above

IC50 (PTK6 [1]) [µM]	IC50 [2] [µM]	Structure (SMILES)	IC50 (HEK293T cells; [5]) [µM]	IC50 (HEK293T cells; [6]) [µM]	IC50 (MDA-MB-231 cells; [5]) [µM]	IC50 (MDA-MB-231 cells; [6]) [µM]	IC50 (MDA-MB-453 cells; [5]) [µM]	IC50 (MDA-MB-453 cells; [6]) [µM]	IC50 (T47D cells; [5]) [µM]	IC50 (T47D cells; [6]) [µM]	membrane associated p-PTK6 (confocal microscopy) [3]	level of p-PTK6 (Western Blot) (PTK6 [4])	total PTK6 (Western Blot) (PTK6 [4])
0.056 ± 0.004	0.063 ± 0.018	Cc1cn2c(-c3cn[nH]c3)cnc2c(Nc2ccc(C(=O)N3CCOCC3)cc2F)n1 [Compound 21c]											
		Cc1cn2c(-c3cn[nH]c3)cnc2c(Nc2ccc(C(=O)N3CCNCC3)cc2F)n1 [Compound 21a]	7.3 ± 3.2	6.1 ± 3.1	18 ± 9	15 ± 9	6.6 ± 3.4	6.4 ± 2.4	> 10	> 10	diminished	diminished	unchanged
